What all share (assay): Kinase inhibitor library screening, PrestoBlue cell viability, 1 or 10 μM, 72 h
One assay concerns 501Mel cells (parental). The note with it: for cell viability (kinase inhibitor library screening): 501Mel Parental. In short, it runs like this:
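Single-point screen at two doses over three days. Parental and BRAF-inhibitor-resistant sublines (XP: Vemurafenib; GP: Dabrafenib) were assessed by PrestoBlue viability, reported relative to untreated cells.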

Assay [1] deals with 501Mel-GP cells (Dabrafenib-resistant). The note with it: for cell viability (kinase inhibitor library screening): 501Mel GP.
For another assay, the system named is IGR37 cells (parental). Particulars: for cell viability (kinase inhibitor library screening): IGR37 Parental.
Assay [2] relates to IGR37-XP cells (Vemurafenib-resistant). Particulars: for cell viability (kinase inhibitor library screening): IGR37 XP.
Assay [3] deals with 501Mel-XP cells (Vemurafenib-resistant). The note with it: for cell viability (kinase inhibitor library screening): 501Mel XP.
For assay [4], the system named is A375-XP cells (Vemurafenib-resistant). Particulars: for cell viability (kinase inhibitor library screening): A375 XP.
Assay [5] deals with IGR37-GP cells (Dabrafenib-resistant). The note with it: for cell viability (kinase inhibitor library screening): IGR37 GP.
A further assay has as its system A375 cells (parental). Particulars: for cell viability (kinase inhibitor library screening): A375 Parental.
Assay [6] deals with A375-GP cells (Dabrafenib-resistant). The note with it: for cell viability (kinase inhibitor library screening): A375 GP.

On to `CC(C)(C)c1cnc(CSc2cnc(NC(=O)C3CCNCC3)s2)o1` [SNS-032 (BMS-387032)], for which the “cell viability (kinase inhibitor library screening)” value was found to be 23.5% with 501Mel cells (parental) (1μΜ, 72 h); 0.4% with 501Mel cells (parental) (10μΜ, 72 h); 31.8% in assay [1] (1μΜ, 72 h); 0.161% in [1] (10μΜ, 72 h); 3.3% in the assay with IGR37 cells (parental) (1μΜ, 72 h); 0.754% in the assay with IGR37 cells (parental) (10μΜ, 72 h). In addition, the “cell viability (kinase inhibitor library screening)” value in assay [2] (1μΜ, 72 h) was 2.8%; in [2] (10μΜ, 72 h), 2.1%; in [3] (1μΜ, 72 h), 30.8%; in assay [3] (10μΜ, 72 h), -0.0482%; in assay [4] (1μΜ, 72 h) it was 14.3%; in assay [4] (10μΜ, 72 h), 6.4%. In addition, the “cell viability (kinase inhibitor library screening)” value in [5] (1μΜ, 72 h) came to 8.6%; in assay [5] (10μΜ, 72 h), 2.7%; in the assay with A375 cells (parental) (10μΜ, 72 h), 7.7%; in the assay with A375 cells (parental) (1μΜ, 72 h), 13.7%; in assay [6] (1μΜ, 72 h), 8.3%; in assay [6] (10μΜ, 72 h) it was 3.6%.
As to `O=C(Nc1cccc(Cl)c1)Nc1ncc(CCNc2ncnc3ccsc23)s1` [SNS-314], the “cell viability (kinase inhibitor library screening)” value in the assay on 501Mel cells (parental) (1μΜ, 72 h) is reported as 79.7%; in the assay with 501Mel cells (parental) (10μΜ, 72 h), 75.7%; in assay [1] (1μΜ, 72 h), 79.1%; in assay [1] (10μΜ, 72 h) it was 58.4%; with IGR37 cells (parental) (1μΜ, 72 h) it was 81.9%; with IGR37 cells (parental) (10μΜ, 72 h) it was 57.7%. The “cell viability (kinase inhibitor library screening)” value in assay [2] (1μΜ, 72 h) is 88.3%; in assay [2] (10μΜ, 72 h), 20.8%; in [3] (1μΜ, 72 h), 72.3%; in assay [3] (10μΜ, 72 h), 46.6%; in assay [4] (1μΜ, 72 h), 56.7%; in assay [4] (10μΜ, 72 h), 55.3%. The “cell viability (kinase inhibitor library screening)” value is listed as 93.6% in [5] (1μΜ, 72 h); 58.8% in assay [5] (10μΜ, 72 h); 46.0% with A375 cells (parental) (10μΜ, 72 h); 47.7% in the assay with A375 cells (parental) (1μΜ, 72 h); 47.1% in assay [6] (1μΜ, 72 h); 46.9% in assay [6] (10μΜ, 72 h).
On to `Oc1c2ccccc2c2c3c(cccc13)N=N2` [SP600125], for which the viability at 1 µM is 107% with 501Mel cells (parental) (Homo sapiens, 72 h, read-out: cell viability, 501Mel Parental, 1μΜ); 95.4% in [1] (Homo sapiens, 72 h, read-out: cell viability, 501Mel GP, 1μΜ); 98.4% in the assay on IGR37 cells (parental) (Homo sapiens, IGR-37, 72 h, read-out: cell viability, IGR37 Parental, 1μΜ); 96.5% in [2] (Homo sapiens, IGR-37, 72 h, read-out: cell viability, IGR37 XP, 1μΜ); 94.3% in assay [3] (Homo sapiens, 72 h, read-out: cell viability, 501Mel XP, 1μΜ); 103% in assay [4] (Homo sapiens, A-375, 72 h, read-out: cell viability, A375 XP, 1μΜ). In addition, the viability at 1 µM came out at 92.5% in assay [5] (Homo sapiens, IGR-37, 72 h, read-out: cell viability, IGR37 GP, 1μΜ); 102% with A375 cells (parental) (Homo sapiens, A-375, 72 h, read-out: cell viability, A375 Parental, 1μΜ); 98.3% in assay [6] (Homo sapiens, A-375, 72 h, read-out: cell viability, A375 GP, 1μΜ). The viability at 10 µM stood at 75.1% with 501Mel cells (parental) (Homo sapiens, 72 h, read-out: cell viability, 501Mel Parental, 10μΜ); 66.8% in [1] (Homo sapiens, 72 h, read-out: cell viability, 501Mel GP, 10μΜ); 70.6% in the assay on IGR37 cells (parental) (Homo sapiens, IGR-37, 72 h, read-out: cell viability, IGR37 Parental, 10μΜ); 45.8% in assay [2] (Homo sapiens, IGR-37, 72 h, read-out: cell viability, IGR37 XP, 10μΜ); 54.5% in [3] (Homo sapiens, 72 h, read-out: cell viability, 501Mel XP, 10μΜ); 91.5% in assay [4] (Homo sapiens, A-375, 72 h, read-out: cell viability, A375 XP, 10μΜ). For the same compound, the viability at 10 µM in assay [5] (Homo sapiens, IGR-37, 72 h, read-out: cell viability, IGR37 GP, 10μΜ) was determined as 74.4%; in the assay with A375 cells (parental) (Homo sapiens, A-375, 72 h, read-out: cell viability, A375 Parental, 10μΜ), 79.2%; in assay [6] (Homo sapiens, A-375, 72 h, read-out: cell viability, A375 GP, 10μΜ), 83.9%.
`Cc1[nH]c(/C=C2\C(=O)Nc3ccc(S(=O)(=O)N(C)c4cccc(Cl)c4)cc32)c(C)c1C(=O)N1CCN(C)CC1` [SU11274]: the “cell viability (kinase inhibitor library screening)” value with 501Mel cells (parental) (1μΜ, 72 h) amounted to 107.1%; in the assay on 501Mel cells (parental) (10μΜ, 72 h) it was 12.1%; in assay [1] (1μΜ, 72 h), 111.1%; in assay [1] (10μΜ, 72 h), 33.6%; with IGR37 cells (parental) (1μΜ, 72 h), 117.2%; in the assay on IGR37 cells (parental) (10μΜ, 72 h), 13.1%. Also, the “cell viability (kinase inhibitor library screening)” value in assay [2] (1μΜ, 72 h) amounted to 105.9%; in assay [2] (10μΜ, 72 h) it was 19.7%; in assay [3] (1μΜ, 72 h) it was 92.2%; in assay [3] (10μΜ, 72 h) it was 0.0577%; in assay [4] (1μΜ, 72 h) it was 111.1%; in assay [4] (10μΜ, 72 h), 22.4%. The “cell viability (kinase inhibitor library screening)” value in [5] (1μΜ, 72 h) is 103.1%; in [5] (10μΜ, 72 h), 37.8%; in the assay with A375 cells (parental) (10μΜ, 72 h) it was 65.8%; in the assay on A375 cells (parental) (1μΜ, 72 h) it was 112.5%; in [6] (1μΜ, 72 h), 104.3%; in assay [6] (10μΜ, 72 h), 46.3%.
On to `CN1CCN(CCOc2cc(OC3CCOCC3)c3c(Nc4c(Cl)ccc5c4OCO5)ncnc3c2)CC1` [Saracatinib (AZD0530)], for which the “cell viability (kinase inhibitor library screening)” value in the assay on 501Mel cells (parental) (1μΜ, in %) is listed as 105.0; in [1] (1μΜ, in %) it was 100.5; in [1] (10μΜ, in %) it was 90.5; in the assay with IGR37 cells (parental) (10μΜ, in %), 96.3; in assay [2] (1μΜ, in %) it was 97.3; in [2] (10μΜ, in %), 61.7. Further, the “cell viability (kinase inhibitor library screening)” value is 95.7 in assay [3] (1μΜ, in %); 79.4 in assay [3] (10μΜ, in %); 92.8 in assay [4] (1μΜ, in %); 71.3 in assay [4] (10μΜ, in %); 96.8 in assay [5] (1μΜ, in %); 77.9 in [5] (10μΜ, in %). Further, the “cell viability (kinase inhibitor library screening)” value is given as 92.2 in the assay on A375 cells (parental) (1μΜ, in %); 71.5 in the assay on A375 cells (parental) (10μΜ, in %); 81.5 in [6] (1μΜ, in %); 56.9 in assay [6] (10μΜ, in %).
With `Cc1cc(C)c(/C=C2\C(=O)Nc3ccccc32)[nH]1` [Semaxanib (SU5416)], the “cell viability (kinase inhibitor library screening)” value stood at 100.0 in the assay on 501Mel cells (parental) (1μΜ, in %); 90.0 in the assay on 501Mel cells (parental) (10μΜ, in %); 104.6 in assay [1] (1μΜ, in %); 82.4 in assay [1] (10μΜ, in %); 100.1 in the assay with IGR37 cells (parental) (1μΜ, in %); 97.0 with IGR37 cells (parental) (10μΜ, in %). For the same compound, the “cell viability (kinase inhibitor library screening)” value in [2] (1μΜ, in %) was 100.1; in assay [2] (10μΜ, in %), 61.3; in assay [3] (1μΜ, in %) it was 89.0; in assay [3] (10μΜ, in %) it was 70.1; in [4] (10μΜ, in %), 97.5; in [5] (1μΜ, in %), 92.4. The “cell viability (kinase inhibitor library screening)” value in assay [5] (10μΜ, in %) was found to be 88.3; in the assay on A375 cells (parental) (1μΜ, in %), 104.2; with A375 cells (parental) (10μΜ, in %) it was 98.1; in assay [6] (1μΜ, in %), 106.4; in assay [6] (10μΜ, in %), 85.4.

In general, viability refers to a read-out of living cells in per cent, often relative to untreated cells.

The values are drawn from publication PMC6364417, “Kinase inhibitor library screening identifies synergistic drug combinations effective in sensitive and resistant melanoma cells” (Journal of Experimental & Clinical Cancer Research : CR, 2019).
